Results from US8536173B2, “Tetrahydroquinoxaline urea derivatives as modulators of 11-B-hydroxysteroid dehydrogenase type I” (SANOFI, priority 2009, dated 2013).
Counter-ions that a name gives are not always drawn.

Test system: 11βHSD1 in the eyes
Conditions: healthy volunteers, after seven days of treatment; cited from earlier work

In the case of `CC1(C)[C@@H](OC(=O)CCC(=O)O)CC[C@]2(C)[C@H]3C(=O)C=C4[C@@H]5C[C@@](C)(C(=O)O)CC[C@]5(C)CC[C@@]4(C)[C@]3(C)CC[C@@H]12` [carbenoxolone], the “IOP is reduced by” value is listed as 18%.

Test system: not given
Conditions: not given

Compared with `Cc1noc([C@]23CC4CC(C2)[C@H](NC(=O)N2CCN(c5ccc(N6CCN(S(=O)(=O)C7CC7)CC6)cn5)c5ccccc52)C(C4)C3)n1`, `NC[C@]12CC3CC(C1)[C@H](NC(=O)N1CCN(c4ccc(N5CCN(S(=O)(=O)C6CC6)CC5)cn4)c4ccccc41)C(C3)C2` (as salt: hydrochloride) is higher in melting point: 135 °C for the first, 197 °C for the second.

`NC(=O)C[C@]12CC3CC(C1)[C@H](NC(=O)N1CCN(c4ccc(N5CCN(S(=O)(=O)C6CC6)CC5)cn4)c4ccccc41)C(C3)C2` and `CONC(=O)[C@]12CC3CC(C1)[C@H](NC(=O)N1CCN(c4ccc(N5CCN(S(=O)(=O)C6CC6)CC5)cn4)c4ccccc41)C(C3)C2` cannot be ordered by melting point: 120 to 135 °C for the first, 125 to 163 °C for the second.

Compared with `CC(C)(C)N1CCN(c2ccc(N3CCN(C(=O)N[C@H]4C5CC6CC4C[C@@](C(O)C(F)(F)F)(C6)C5)c4ccccc43)nc2)CC1` (stereo partly drawn), `CC(C)(C)N1CCN(c2ccc(N3CCN(C(=O)N[C@H]4C5CC6CC4C[C@@](NS(C)(=O)=O)(C6)C5)c4ccccc43)nc2)CC1` is lower in melting point: 192 to 196 °C for the first, 165 °C for the second.

Compared with `CC(C)(C)N1CCN(c2ccc(N3CCN(C(=O)N[C@H]4C5CC6CC4C[C@@](Cc4nn[nH]n4)(C6)C5)c4ccccc43)nc2)CC1`, `CC(C)(C)N1CCN(c2ccc(N3CCN(C(=O)N[C@H]4C5CC6CC4C[C@@](CNS(C)(=O)=O)(C6)C5)c4ccccc43)nc2)CC1` (as salt: hydrochloride) is higher in melting point: 160 to 170 °C for the first, 252 °C for the second.
